# Patent publication US20140178318A1, “NOVEL COMPOUNDS” (DSM IP ASSETS B.V., priority 2009, published 2014)
# Test: Comparative example: solubility of BMDBM in 1:1 mixture of C12-15 alkyl benzoate and other UV-filter
# Description: Where necessary the mixture was centrifuged in order to obtain a clear supernatant.
smiles,measurement,setting,value
"CCCCC(CC)COc1ccc(-c2nc(-c3ccc(OC)cc3)nc(-c3ccc(OCC(CC)CCCC)cc3O)n2)c(O)c1 (stereo not drawn) [BEMT, bis-ethylhexyloxyphenol methoxyphenyl triazine]",Solubility of BMDBM in C12-15 alkyl benzoate/UV-filter 1:1,"200 mg BMDBM with 1000 mg of 1:1 mixture, supernatant by HPLC after 1 month at RT",3 wt.-%
same,Δ solubility related to cosmetic solvent (BMDBM),C12-15 alkyl benzoate/UV-filter 1:1,−4 wt.-%
same,Δ solubility of BMDBM,C12-15 alkyl benzoate/UV-filter 1:1 versus C12-15 alkyl benzoate,−11 wt.-%
